# Data published in patent US9708314B2, “Heterocyclic amide compound” (NISSAN CHEMICAL INDUSTRIES, LTD., priority 2013, dated 2017).
# Experiments:
# Type in all cases: in vivo
# [1] = test system: Lolium multiflorum Lam.; assay: Test Example 4: herbicidal effect by application to foliage (diluvial soil, plastic box); conditions: application to foliage, application herbicide amount 320 g/ha
# Outline: (§1)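 Greenhouse plants (25° C. to 30° C., 14 d, diluvial soil) receive a foliar spray of water-diluted emulsifiable formulation at defined g/ha. Grading after 3 weeks uses a six-step herbicidal-ratio scale, with 4 covering 70% to <90% and 1 covering 5% to <20%.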
# [2] = test system: Setaria viridis; assay: as above; conditions: application to foliage, application herbicide amount 320 g/ha
# Outline: as §1
# [3] = test system: Echinochloa crus-galli var. crus-galli; assay: as above; conditions: application to foliage, application herbicide amount 320 g/ha
# Outline: as §1
# [4] = test system: Chenopodium album; assay: as above; conditions: application to foliage, application herbicide amount 320 g/ha
# Outline: as §1
# [5] = test system: Veronica persica; assay: as above; conditions: application to foliage, application herbicide amount 320 g/ha
# Outline: as §1
# [6] = test system: Apera spica-venti.; assay: as above; conditions: application to foliage, application herbicide amount 320 g/ha
# Outline: as §1
# [7] = test system: Abutilon theophrasti; assay: as above; conditions: application to foliage, application herbicide amount 320 g/ha
# Outline: as §1
# [8] = test system: Avena fatua; assay: as above; conditions: application to foliage, application herbicide amount 320 g/ha
# Outline: as §1
# [9] = test system: Alopecurus myosuroides; assay: as above; conditions: application to foliage, application herbicide amount 320 g/ha
# Outline: as §1
# [10] = test system: directly sowed Oryza sativa; assay: Test Example 4: effect on crop by application to foliage (diluvial soil, plastic box); conditions: application to foliage, application herbicide amount 320 g/ha
# Outline: as §1
# [11] = test system: Beta vulgaris ssp. vulgaris; assay: as above; conditions: application to foliage, application herbicide amount 320 g/ha
# Outline: as §1
# [12] = test system: Triticum aestivum; assay: as above; conditions: application to foliage, application herbicide amount 320 g/ha
# Outline: as §1
# [13] = test system: Zea mays; assay: as above; conditions: application to foliage, application herbicide amount 320 g/ha
# Outline: as §1
# [14] = test system: Brassica campestris L.; assay: as above; conditions: application to foliage, application herbicide amount 320 g/ha
# Outline: as §1
# [15] = test system: Glycine max; assay: as above; conditions: application to foliage, application herbicide amount 320 g/ha
# Outline: as §1
# [16] = test system: Echinochloa oryzacola Vasing.; assay: Test Example 2: herbicidal activity, application during weed generation in submerged conditions; conditions: Eighteenth Table; application herbicide amount 320 g/ha
# Outline: (§2)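 Seeds were sown together in alluvial soil kept under 4 cm of water and grown at 25 °C to 30 °C. Once plants reached the one- to two-leaf stage, the diluted emulsion was applied to the water surface at a predetermined g/ha amount, and effects were rated 0–5 after three weeks.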
# [17] = test system: Monochoria vaginalis; assay: as above; conditions: Eighteenth Table; application herbicide amount 320 g/ha
# Outline: as §2
# [18] = test system: Scirpus juncoides; assay: as above; conditions: Eighteenth Table; application herbicide amount 320 g/ha
# Outline: as §2
SMILES,K (Lolium multiflorum Lam.) herbicidal effect [1],G (Setaria viridis) herbicidal effect [2],H (Echinochloa crus-galli var. crus-galli) herbicidal effect [3],O (Chenopodium album) herbicidal effect [4],R (Veronica persica) herbicidal effect [5],L (Apera spica-venti.) herbicidal effect [6],M (Abutilon theophrasti) herbicidal effect [7],I (Avena fatua) herbicidal effect [8],J (Alopecurus myosuroides) herbicidal effect [9],d (directly sowed Oryza sativa) effect on crop [10],f (Beta vulgaris ssp. vulgaris) effect on crop [11],e (Triticum aestivum) effect on crop [12],b (Zea mays) effect on crop [13],g (Brassica campestris L.) effect on crop [14],c (Glycine max) effect on crop [15],A (Echinochloa oryzicola Vasing.) herbicidal ratio grade [16],C (Monochoria vaginalis) herbicidal ratio grade [17],B (Scirpus juncoides) herbicidal ratio grade [18]
COCCOCc1nnc2c(C(=O)Nc3nnc(C)o3)ccc(C(F)(F)F)n12 [1-019],2 (Herbicidal ratio of 20% or more and less than 40%),4 (Herbicidal ratio of 70% or more and less than 90%),5 (Herbicidal ratio of 90% or more (almost completely withered)),5 (Herbicidal ratio of 90% or more (almost completely withered)),4 (Herbicidal ratio of 70% or more and less than 90%),4 (Herbicidal ratio of 70% or more and less than 90%),4 (Herbicidal ratio of 70% or more and less than 90%),3 (Herbicidal ratio of 40% or more and less than 70%),2 (Herbicidal ratio of 20% or more and less than 40%),4 (Herbicidal ratio of 70% or more and less than 90%),5 (Herbicidal ratio of 90% or more (almost completely withered)),3 (Herbicidal ratio of 40% or more and less than 70%),2 (Herbicidal ratio of 20% or more and less than 40%),4 (Herbicidal ratio of 70% or more and less than 90%),2 (Herbicidal ratio of 20% or more and less than 40%),4 (Herbicidal ratio of 70% or more and less than 90%),3 (Herbicidal ratio of 40% or more and less than 70%),3 (Herbicidal ratio of 40% or more and less than 70%)
Cc1nnc(NC(=O)c2ccc(C(F)(F)F)n3c(COCC(F)(F)F)nnc23)o1 [1-020],1 (Herbicidal ratio of 5% or more and less than 20%),3 (Herbicidal ratio of 40% or more and less than 70%),5 (Herbicidal ratio of 90% or more (almost completely withered)),5 (Herbicidal ratio of 90% or more (almost completely withered)),3 (Herbicidal ratio of 40% or more and less than 70%),1 (Herbicidal ratio of 5% or more and less than 20%),2 (Herbicidal ratio of 20% or more and less than 40%),1 (Herbicidal ratio of 5% or more and less than 20%),1 (Herbicidal ratio of 5% or more and less than 20%),0 (Herbicidal ratio of 5% or less (almost no effect)),5 (Herbicidal ratio of 90% or more (almost completely withered)),1 (Herbicidal ratio of 5% or more and less than 20%),0 (Herbicidal ratio of 5% or less (almost no effect)),3 (Herbicidal ratio of 40% or more and less than 70%),1 (Herbicidal ratio of 5% or more and less than 20%),2 (Herbicidal ratio of 20% or more and less than 40%),2 (Herbicidal ratio of 20% or more and less than 40%),2 (Herbicidal ratio of 20% or more and less than 40%)
